In assay [1] the target is T1, GLP-1 receptor (Homo sapiens, UniProt P43220).
Procedure: After being incubated at room temperature for 2 hours, the solution was filtered through a unifilter 96GF/C plate (Perkin-Elmer) pretreated with 1% polyethylenimine containing 0.5% BSA, washed with 25 mM HEPES buffer solution (pH 7.4) containing 0.5% BSA, and radioactivity remained on the filter was measured by a gamma counter (Top Counter; Perkin-Elmer).
In assay [2] the target is T1, GLP-1 receptor. As to the kind of experiment: Assay for production of cAMP.

T1 sequence (P43220 24-463, species assumed): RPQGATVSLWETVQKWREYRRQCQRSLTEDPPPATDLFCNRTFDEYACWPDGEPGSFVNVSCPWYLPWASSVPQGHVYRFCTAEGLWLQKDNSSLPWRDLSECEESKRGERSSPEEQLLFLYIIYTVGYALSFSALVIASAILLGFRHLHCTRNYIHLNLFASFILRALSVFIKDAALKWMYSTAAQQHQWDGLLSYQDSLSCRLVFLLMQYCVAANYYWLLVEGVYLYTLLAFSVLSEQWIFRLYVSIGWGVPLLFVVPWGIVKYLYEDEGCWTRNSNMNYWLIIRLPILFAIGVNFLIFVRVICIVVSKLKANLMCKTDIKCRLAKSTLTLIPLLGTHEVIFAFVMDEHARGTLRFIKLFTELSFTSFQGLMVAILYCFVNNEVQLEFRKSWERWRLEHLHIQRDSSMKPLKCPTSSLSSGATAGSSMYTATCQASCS

`CC[C@H](C)[C@H](NC(=O)[C@H](Cc1ccccc1)NC(=O)[C@H](CCC(=O)O)NC(=O)[C@H](CCCCN)NC(=O)[C@H](C)NC(=O)[C@H](C)NC(=O)[C@H](CCC(N)=O)NC(=O)CNC(=O)[C@H](CCC(=O)O)NC(=O)[C@H](CC(C)C)NC(=O)[C@H](Cc1ccc(O)cc1)NC(=O)[C@H](CO)NC(=O)[C@H](CO)NC(=O)[C@@H](NC(=O)[C@H](CC(=O)O)NC(=O)[C@H](CO)NC(=O)[C@@H](NC(=O)[C@H](Cc1ccccc1)NC(=O)[C@@H](NC(=O)CNC(=O)[C@H](CCC(=O)O)NC(=O)[C@H](C)NC(=O)[C@@H](N)Cc1c[nH]cn1)[C@@H](C)O)[C@@H](C)O)C(C)C)C(=O)N[C@@H](C)C(=O)N[C@@H](Cc1c[nH]c2ccccc12)C(=O)N[C@@H](CC(C)C)C(=O)N[C@H](C(=O)N[C@@H](CSCC(=O)N[C@@H](CC(=O)N[C@@H]1O[C@H](CO)[C@@H](O[C@@H]2O[C@H](CO)[C@@H](O[C@@H]3O[C@H](CO[C@H]4O[C@H](CO)[C@@H](O)[C@H](O)[C@@H]4O[C@@H]4O[C@H](CO)[C@@H](O[C@@H]5O[C@H](CO[C@]6(C(=O)O)C[C@H](O)[C@@H](NC(C)=O)[C@H]([C@H](O)[C@H](O)CO)O6)[C@H](O)[C@H](O)[C@H]5O)[C@H](O)[C@H]4NC(C)=O)[C@@H](O)[C@H](O[C@H]4O[C@H](CO)[C@@H](O)[C@H](O)[C@@H]4O[C@@H]4O[C@H](CO)[C@@H](O[C@@H]5O[C@H](CO[C@]6(C(=O)O)C[C@H](O)[C@@H](NC(C)=O)[C@H]([C@H](O)[C@H](O)CO)O6)[C@H](O)[C@H](O)[C@H]5O)[C@H](O)[C@H]4NC(C)=O)[C@@H]3O)[C@H](O)[C@H]2NC(C)=O)[C@H](O)[C@H]1NC(C)=O)C(=O)O)C(=O)NCC(=O)N[C@@H](CCCNC(=N)N)C(=O)N[C@@H](CSCC(=O)N[C@@H](CC(=O)N[C@@H]1O[C@H](CO)[C@@H](O[C@@H]2O[C@H](CO)[C@@H](O[C@@H]3O[C@H](CO[C@H]4O[C@H](CO)[C@@H](O)[C@H](O)[C@@H]4O[C@@H]4O[C@H](CO)[C@@H](O[C@@H]5O[C@H](CO[C@]6(C(=O)O)C[C@H](O)[C@@H](NC(C)=O)[C@H]([C@H](O)[C@H](O)CO)O6)[C@H](O)[C@H](O)[C@H]5O)[C@H](O)[C@H]4NC(C)=O)[C@@H](O)[C@H](O[C@H]4O[C@H](CO)[C@@H](O)[C@H](O)[C@@H]4O[C@@H]4O[C@H](CO)[C@@H](O[C@@H]5O[C@H](CO[C@]6(C(=O)O)C[C@H](O)[C@@H](NC(C)=O)[C@H]([C@H](O)[C@H](O)CO)O6)[C@H](O)[C@H](O)[C@H]5O)[C@H](O)[C@H]4NC(C)=O)[C@@H]3O)[C@H](O)[C@H]2NC(C)=O)[C@H](O)[C@H]1NC(C)=O)C(=O)O)C(N)=O)C(C)C` [GL3437CE1] had an IC50 in assay [1] of 30 nM. The EC50 in assay [2] is 4.1 nM.

Take `CC[C@H](C)[C@H](NC(=O)[C@H](Cc1ccccc1)NC(=O)[C@H](CCC(=O)O)NC(=O)[C@H](CC(=O)N[C@@H]1O[C@H](CO)[C@@H](O[C@@H]2O[C@H](CO[C@]3(C(=O)O)C[C@H](O)[C@@H](NC(C)=O)[C@H]([C@H](O)[C@H](O)CO)O3)[C@H](O)[C@H](O)[C@H]2O)[C@H](O)[C@H]1NC(C)=O)NC(=O)[C@H](C)NC(=O)[C@H](C)NC(=O)[C@H](CCC(N)=O)NC(=O)CNC(=O)[C@H](CCC(=O)O)NC(=O)[C@H](CC(C)C)NC(=O)[C@H](Cc1ccc(O)cc1)NC(=O)[C@H](CO)NC(=O)[C@H](CO)NC(=O)[C@@H](NC(=O)[C@H](CC(=O)O)NC(=O)[C@H](CO)NC(=O)[C@@H](NC(=O)[C@H](Cc1ccccc1)NC(=O)[C@@H](NC(=O)CNC(=O)[C@H](CCC(=O)O)NC(=O)[C@H](C)NC(=O)[C@@H](N)Cc1c[nH]cn1)[C@@H](C)O)[C@@H](C)O)C(C)C)C(=O)N[C@@H](C)C(=O)N[C@@H](Cc1c[nH]c2ccccc12)C(=O)N[C@@H](CC(C)C)C(=O)N[C@H](C(=O)N[C@@H](CCCCN)C(=O)NCC(=O)N[C@@H](CCCNC(=N)N)C(=O)N[C@@H](CC(=O)N[C@@H]1O[C@H](CO)[C@@H](O[C@@H]2O[C@H](CO[C@]3(C(=O)O)C[C@H](O)[C@@H](NC(C)=O)[C@H]([C@H](O)[C@H](O)CO)O3)[C@H](O)[C@H](O)[C@H]2O)[C@H](O)[C@H]1NC(C)=O)C(N)=O)C(C)C` [GL2637NS6]: the IC50 in assay [1] was found to be 21 nM. For the same compound, in assay [2], the EC50 came to 1 nM.

As to `CC[C@H](C)[C@H](NC(=O)[C@H](Cc1ccccc1)NC(=O)[C@H](CCC(=O)O)NC(=O)[C@H](CCCCN)NC(=O)[C@H](C)NC(=O)[C@H](C)NC(=O)[C@H](CCC(N)=O)NC(=O)CNC(=O)[C@H](CCC(=O)O)NC(=O)[C@H](CC(C)C)NC(=O)[C@H](Cc1ccc(O)cc1)NC(=O)[C@H](CO)NC(=O)[C@H](CO)NC(=O)[C@@H](NC(=O)[C@H](CC(=O)O)NC(=O)[C@H](CO)NC(=O)[C@@H](NC(=O)[C@H](Cc1ccccc1)NC(=O)[C@@H](NC(=O)CNC(=O)[C@H](CCC(=O)O)NC(=O)[C@H](C)NC(=O)[C@@H](N)Cc1c[nH]cn1)[C@@H](C)O)[C@@H](C)O)C(C)C)C(=O)N[C@@H](C)C(=O)N[C@@H](Cc1c[nH]c2ccccc12)C(=O)N[C@@H](CC(C)C)C(=O)N[C@H](C(=O)N[C@@H](CC(=O)N[C@@H]1O[C@H](CO)[C@@H](O)[C@H](O)[C@H]1NC(C)=O)C(=O)NCC(=O)N[C@@H](CCCNC(=N)N)C(N)=O)C(C)C` [GL34NG], 0.85 nM corresponded to half-maximal inhibition in assay [1] (IC50). The compound further registered an EC50 in assay [2] of 0.17 nM.

As for `CC[C@H](C)[C@H](NC(=O)[C@H](Cc1ccccc1)NC(=O)[C@H](CCC(=O)O)NC(=O)[C@H](CCCCN)NC(=O)[C@H](C)NC(=O)[C@H](C)NC(=O)[C@H](CCC(N)=O)NC(=O)CNC(=O)[C@H](CCC(=O)O)NC(=O)[C@H](CC(C)C)NC(=O)[C@H](Cc1ccc(O)cc1)NC(=O)[C@H](CO)NC(=O)[C@H](CO)NC(=O)[C@@H](NC(=O)[C@H](CC(=O)O)NC(=O)[C@H](CO)NC(=O)[C@@H](NC(=O)[C@H](Cc1ccccc1)NC(=O)[C@@H](NC(=O)CNC(=O)[C@H](CCC(=O)O)NC(=O)[C@H](C)NC(=O)[C@@H](N)Cc1c[nH]cn1)[C@@H](C)O)[C@@H](C)O)C(C)C)C(=O)N[C@@H](C)C(=O)N[C@@H](Cc1c[nH]c2ccccc12)C(=O)N[C@@H](CC(C)C)C(=O)N[C@H](C(=O)N[C@@H](CSCC(=O)N[C@@H](CC(=O)N[C@@H]1O[C@H](CO)[C@@H](O[C@@H]2O[C@H](CO)[C@@H](O[C@@H]3O[C@H](CO[C@H]4O[C@H](CO)[C@@H](O)[C@H](O)[C@@H]4O[C@@H]4O[C@H](CO)[C@@H](O[C@@H]5O[C@H](CO[C@]6(C(=O)O)C[C@H](O)[C@@H](NC(C)=O)[C@H]([C@H](O)[C@H](O)CO)O6)[C@H](O)[C@H](O)[C@H]5O)[C@H](O)[C@H]4NC(C)=O)[C@@H](O)[C@H](O[C@H]4O[C@H](CO)[C@@H](O)[C@H](O)[C@@H]4O[C@@H]4O[C@H](CO)[C@@H](O[C@@H]5O[C@H](CO[C@]6(C(=O)O)C[C@H](O)[C@@H](NC(C)=O)[C@H]([C@H](O)[C@H](O)CO)O6)[C@H](O)[C@H](O)[C@H]5O)[C@H](O)[C@H]4NC(C)=O)[C@@H]3O)[C@H](O)[C@H]2NC(C)=O)[C@H](O)[C@H]1NC(C)=O)C(=O)O)C(=O)NCC(=O)N[C@@H](CCCNC(=N)N)C(N)=O)C(C)C` [GL34CE1], the midpoint of inhibition in assay [1], the IC50, lay at 3.5 nM. For the same compound, in assay [2], the EC50 was 0.72 nM.

Source of the values: US20100016547A1, “Glycosilated Peptide and Medicine Comprising It as an Effective Ingredient” (priority 2005, published 2010).
